Reference: US11512053B2, “Arginine methyltransferase inhibitors and uses thereof” (priority 2013, dated 2022)
Where a name gives a salt, the structure may show the parent alone. Read-outs that look alike come from different tables or passages of the source.

Experiments:
[1] = target: full-length human PRMT8 isoform 1 (Homo sapiens, UniProt Q9NR22); experiment: PRMT8 Biochemical Assay (3H-SAM Flashplate, peptide substrate); settings: read-out: Biochemical IC50 PRMT8
Method in brief: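 Full-length human PRMT8 (1.5 nM, E. coli-expressed, GST removed) preincubated 30 min at room temperature with compound, then reacted with 50 nM 3H-SAM plus 550 nM cold SAM and 150 nM biotinylated H4 31-45 peptide in 20 mM Bicine pH 7.6, 1 mM TCEP, 0.005% BSG, 0.002% Tween 20, 2% DMSO. Quenched with 400 uM cold SAM; labelled peptide captured on streptavidin Flashplate, % inhibition versus 1 mM SAH and DMSO controls fitted to 4- or 3-parameter curve.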

[2] = tested on: mono-methyl arginine in RKO cells; experiment: RKO Methylation Assay, In Cell Western (ICW) for detection of mono-methyl arginine and DNA content; format: cell-based; settings: Homo sapiens, RKO, 72 h
Method in brief: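 RKO cells were treated with compound for 72 hours at 37 °C, methanol-fixed and stained overnight at 4 °C with anti-mono-methyl arginine (1:200), with DRAQ5 for DNA. Odyssey 800/700 nm intensity ratio was normalized to DMSO and 20 μM reference-compound controls. EC30 from triplicate nine-point curves.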

[3] = single experiment or average of multiple experiments
[4] = RKO cells, 72 hours compound incubation, mono-methyl arginine signal normalised to DNA content (DRAQ5), percent activation vs 20 μM reference compound, read-out: In Cell Western EC30
[5] = RKO cells, 72 hours incubation, mono-methyl arginine signal normalised to DNA content, single experiment or average of multiple experiments, read-out: In Cell Western EC30
[6] = read-out: In Cell Western EC30, RKO cells, 72 hours compound incubation, mono-methyl arginine signal normalised to DNA content (DRAQ5), percent activation vs 20 μM reference compound
[7] = read-out: In Cell Western EC30, RKO cells, 72 hours incubation, mono-methyl arginine signal normalised to DNA content, single experiment or average of multiple experiments

Sequence of full-length human PRMT8 isoform 1 (Q9NR22 whole entry, canonical isoform): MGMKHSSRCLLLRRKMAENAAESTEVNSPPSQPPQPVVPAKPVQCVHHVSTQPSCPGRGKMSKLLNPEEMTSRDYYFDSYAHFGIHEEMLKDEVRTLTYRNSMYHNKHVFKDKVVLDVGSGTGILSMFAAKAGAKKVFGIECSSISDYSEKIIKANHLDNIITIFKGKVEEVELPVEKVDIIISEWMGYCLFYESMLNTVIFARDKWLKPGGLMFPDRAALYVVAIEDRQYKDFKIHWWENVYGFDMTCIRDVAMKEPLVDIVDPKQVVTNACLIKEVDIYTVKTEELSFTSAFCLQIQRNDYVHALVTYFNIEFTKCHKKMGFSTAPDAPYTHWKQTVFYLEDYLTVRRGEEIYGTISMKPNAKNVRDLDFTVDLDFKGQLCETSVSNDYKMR

| IC50 [1] [nM] | IC50 [1, 3] [nM] | Compound | EC30 [2, 4] [nM] | EC30 [2, 5] [nM] | EC30 [2, 6] [nM] | EC30 [2, 7] [nM] |
| --- | --- | --- | --- | --- | --- | --- |
| 3010 to 10000 | ≥ 10000 | CNCCN(C)Cc1c[nH]nc1[C@H]1CC[C@]2(CCCO2)OC1 [Compound 198] | < 3000 | 406 | – | – |
| < 100 | 38.3 | CNCCN(C)Cc1c[nH]nc1C1CCC2(CCCC2)OC1 (stereo not shown) [Compound 199] | < 3000 | 802 | – | – |
| < 100 | – | CNCCN(C)Cc1n[nH]cc1[C@H]1CC[C@@]2(CC1)CC(C)(C)CO2 [Compound 200, Methyl[2-(methylamino)ethyl]([4-[(5S,8S)-3,3-dimethyl-1-oxaspiro[4.5]decan-8-yl]-1H-pyrazol-3-yl]methyl)amine trifluoroacetic acid salt] | < 3000 | 20.3 | – | – |
| < 100 | – | CNCCN(C)Cc1n[nH]cc1[C@H]1CC[C@]2(CC1)CC(C)(C)CO2 [Compound 201] | < 3000 | 155 | – | – |
| < 100 | 26.9 | CCOCC1CC(c2n[nH]cc2CN(C)CCNC)CCC1(C)C (stereo not shown) [Compound 202] | < 3000 | 327 | – | – |
| < 100 | 84.4 | CNCCN(C)Cc1n[nH]cc1[C@H]1CC[C@H](C(=O)NCCC(C)C)CC1 [Compound 203] | < 3000 | 327 | – | – |
| < 100 | 51.6 | CNCCN(C)Cc1c[nH]nc1[C@H]1CC[C@@H](C(=O)NCCC(C)C)CC1 [Compound 204] | < 3000 | 1550 | – | – |
| < 100 | 15.4 | CNCCN(C)Cc1cn(C)nc1[C@H]1CC[C@@]2(CC1)CC(C)(C)CO2 [Compound 205, Methyl([1-methyl-3-[(5S,8S)-3,3-dimethyl-1-oxaspiro[4.5]decan-8-yl]-1H-pyrazol-4-yl]methyl)[2-(methylamino)ethyl]amine hydrochloride] | < 3000 | 14.4 | – | – |
| < 100 | 28.9 | CNCCN(C)Cc1cn(C)nc1[C@H]1CC[C@]2(CC1)CC(C)(C)CO2 [Compound 206, Methyl([1-methyl-3-[(5R,8S)-3,3-dimethyl-1-oxaspiro[4.5]decan-8-yl]-1H-pyrazol-4-yl]methyl)[2-(methylamino)ethyl]amine hydrochloride] | < 3000 | 76.5 | – | – |
| < 100 | – | CN(CCN)Cc1c[nH]nc1[C@H]1CC[C@@]2(CC1)CC(C)(C)CO2 [Compound 207] | < 3000 | 12.1 | – | – |
| < 100 | 12.8 | CN(CCN)Cc1c[nH]nc1[C@H]1CC[C@]2(CC1)CC(C)(C)CO2 [Compound 208] | < 3000 | 67.2 | – | – |
| < 100 | 43.9 | CNCCN(C)Cc1c[nH]nc1[C@H]1CC[C@H](C(=O)N(C)CCC(C)C)CC1 [Compound 209] | < 3000 | 916 | – | – |
| < 100 | 22.9 | CNCCN(C)Cc1c[nH]nc1[C@H]1CC[C@@H](C(=O)N(C)CCC(C)C)CC1 [Compound 210] | < 3000 | 280 | – | – |
| < 100 | 10 | CNCCN(C)Cc1c[nH]nc1[C@H]1CC[C@H](C(=O)NCCOc2ccccc2)CC1 [Compound 211] | < 3000 | 155 | – | – |
| < 100 | 8.28 | CNCCN(C)Cc1c[nH]nc1[C@H]1CC[C@@H](C(=O)NCCOc2ccccc2)CC1 [Compound 212] | < 3000 | 433 | – | – |
| 101 to 1000 | 165 | CNCCN(C)Cc1c[nH]nc1[C@H]1CC[C@H](C(=O)N(CCCOC)CCC(C)C)CC1 [Compound 213] | < 3000 | 433 | – | – |
| < 100 | 27.4 | CNCCN(C)Cc1c[nH]nc1[C@H]1CC[C@@H](C(=O)N(CCCOC)CCC(C)C)CC1 [Compound 214] | < 3000 | 95.8 | – | – |
| < 100 | 23 | CNCCN(C)Cc1c[nH]nc1[C@H]1CC[C@@H](C(=O)N(C)CC(C)C)CC1 [Compound 215] | < 3000 | 164 | – | – |
| < 100 | 17.8 | CNCCN(C)Cc1c[nH]nc1C1CCC(F)(F)CC1 [Compound 216] | < 3000 | 111 | – | – |

| IC50 [1] [nM] | IC50 [1, 3] [nM] | Compound | EC30 [2, 4] [nM] | EC30 [2, 5] [nM] | EC30 [2, 6] [nM] | EC30 [2, 7] [nM] |
| --- | --- | --- | --- | --- | --- | --- |
| < 100 | 15 | CNCCN(C)Cc1c[nH]nc1[C@H]1CC[C@H](N(CCOc2ccccc2)C(=O)CCOC)CC1 [Compound 219] | < 3000 | 294 | – | – |
| < 100 | 12.9 | CCC(=O)N(CCOc1ccccc1)[C@H]1CC[C@@H](c2n[nH]cc2CN(C)CCNC)CC1 [Compound 220] | < 3000 | 219 | – | – |
| < 100 | 15.4 | CCC(=O)N(CCOc1ccccc1)[C@H]1CC[C@H](c2n[nH]cc2CN(C)CCNC)CC1 [Compound 221] | < 3000 | 490 | – | – |
| < 100 | 90 | CNCCN(C)Cc1c[nH]nc1[C@H]1CC[C@@H](N(CCOc2ccccc2)C(=O)CC(C)C)CC1 [Compound 222] | < 3000 | 2610 | – | – |
| < 100 | 8.65 | CNCCN(C)Cc1c[nH]nc1[C@H]1CC[C@H](N(CCOc2ccccc2)C(=O)CC(C)C)CC1 [Compound 223] | < 3000 | 275 | – | – |
| < 100 | 10.2 | CCN(C(=O)CCOc1ccccc1)[C@H]1CC[C@@H](c2n[nH]cc2CN(C)CCNC)CC1 [Compound 224] | < 3000 | 84.7 | – | – |
| < 100 | 13.9 | CCN(C(=O)CCOc1ccccc1)[C@H]1CC[C@H](c2n[nH]cc2CN(C)CCNC)CC1 [Compound 225] | < 3000 | 649 | – | – |
| < 100 | 57.6 | CNCCN(C)Cc1c[nH]nc1[C@H]1CC[C@H](C(=O)N(C)CC(C)C)CC1 [Compound 226] | < 3000 | 1530 | – | – |
| < 100 | 16 | CNCCN(C)Cc1c[nH]nc1[C@H]1CC[C@H](N(CCOc2ccccc2)C(=O)CCCOC)CC1 [Compound 229] | < 3000 | 689 | – | – |
| < 100 | 25.7 | CNCCN(C)Cc1c[nH]nc1[C@H]1CC[C@H](N(CCOC)C(=O)CCOc2ccccc2)CC1 [Compound 230] | < 3000 | 1320 | – | – |
| < 100 | 9.32 | CNCCN(C)Cc1c[nH]nc1[C@H]1CC[C@@H](N(CC(C)C)C(=O)CCOc2ccccc2)CC1 [Compound 231] | < 3000 | 96.7 | – | – |
| < 100 | 21 | CNCCN(C)Cc1c[nH]nc1[C@H]1CC[C@H](N(CC(C)C)C(=O)CCOc2ccccc2)CC1 [Compound 232] | < 3000 | 957 | – | – |
| < 100 | 42.7 | CNCCN(C)Cc1c[nH]nc1[C@H]1CC[C@@H](N(CC(C)C)C(=O)CCOC)CC1 [Compound 233] | < 3000 | 1060 | – | – |
| < 100 | 42.8 | CNCCN(C)Cc1c[nH]nc1[C@H]1CC[C@H](N(CC(C)C)C(=O)CCOC)CC1 [Compound 234] | < 3000 | 1060 | – | – |
| < 100 | 44 | CNCCN(C)Cc1c[nH]nc1[C@H]1CC[C@@H](N(CCC(C)C)C(=O)CCOC)CC1 [Compound 235] | < 3000 | 813 | – | – |
| < 100 | 57.8 | CNCCN(C)Cc1c[nH]nc1[C@H]1CC[C@H](N(CCC(C)C)C(=O)CCOC)CC1 [Compound 236] | < 3000 | 813 | – | – |
| < 100 | 83.3 | CNCCN(C)Cc1c[nH]nc1[C@H]1CC[C@@H](N(CCC(C)C)C(=O)CCCOC)CC1 [Compound 237] | < 3000 | 1440 | – | – |
| < 100 | 80.1 | CNCCN(C)Cc1c[nH]nc1[C@H]1CC[C@H](N(CCC(C)C)C(=O)CCCOC)CC1 [Compound 238] | < 3000 | 2150 | – | – |
| < 100 | 13.2 | CCN(C(=O)CC(C)C)[C@H]1CC[C@H](c2n[nH]cc2CN(C)CCNC)CC1 [Compound 239] | < 3000 | 2150 | – | – |

| Compound | IC50 [1] [nM] | IC50 [1, 3] [nM] | EC30 [2, 4] [nM] | EC30 [2, 5] [nM] | EC30 [2, 6] [nM] | EC30 [2, 7] [nM] |
| --- | --- | --- | --- | --- | --- | --- |
| CNCCN(C)Cc1c[nH]nc1[C@H]1CC[C@@H](O)CC1 [Compound 217, 4-[4-([methyl[2-(methylamino)ethyl]amino]methyl)-1H-pyrazol-3-yl]cyclohexan-1-ol trifluoroacetate] | < 100 | 59.5 | – | – | < 3000 | 111 |
| CNCCN(C)Cc1c[nH]nc1[C@H]1CC[C@H](O)CC1 [Compound 227, 4-[4-([methyl[2-(methylamino)ethyl]amino]methyl)-1H-pyrazol-3-yl]cyclohexan-1-ol trifluoroacetate] | < 100 | 35.8 | – | – | < 3000 | 1530 |
